How the values were obtained:
blood ACE = test: level of blood ACE in serum by ELISA after repeated administration; format: in vivo, rat; conditions: SHR serum after 4 weeks of oral administration, compared with negative control
Method: (§1) Particularly, the same rats as described in Example <5-2> were purchased and raised under the same condition. […] Systolic pressure was measured by the same manner as described in Example <5-2> on week 0, week 1, week 2, week 3, and week 4. […] The blood sample was centrifuged at 3,000 rpm for 10 minutes, and as a result serum was obtained and stored at −80° C. The levels of blood ACE and angiotensin-II in the stored serum were measured by using a commercial ELISA kit (USCN Life Science, China) according to the manufacturer's protocol.

[1] = test system: spontaneously hypertensive rats (SHR); test: in vivo blood pressure regulation by a single administration (systolic pressure); design: species or system rat
Method: To investigate in vivo blood pressure regulation effect of the functional peptide separated from the oyster enzyme hydrolysate by a single administration, the peptide was administered to the hypertension animal model once (single administration), followed by the investigation of blood pressure.
Particularly, male spontaneously hypertensive rats (SHR; Central Lab. Animal Inc.) at 11 weeks and Wistar rats (Central Lab. Animal Inc.) were purchased, which were raised in a laboratory animal room in which the temperature was regulated at 22±3° C., the humidity was controlled at 50±5%, and the light/dark cycle was set at 12 h/12 h. Feeds and drinking water were provided freely. After a week of adaptation, the animals were divided into the experimental and the control groups and used for the experiment according to the guide line of Association for Assessment and Accreditation of Laboratory Care International approved by Institutional Animal Care and Use Committee, Kyunghee University College of Pharmacy. […] Then the animals were fixed for 20 minutes in a rat temperature control unit in which the temperature was maintained at 42° C. at the time point of 0, 3, 6, 9, 12, and 24 h, to let the tail vessel fully expanded. Then, systolic pressure was measured to investigate the antihypertensive activity.

blood angiotensin-II = test: level of blood angiotensin-II in serum by ELISA after repeated administration; format: in vivo, rat; conditions: SHR serum after 4 weeks of oral administration, compared with negative control
Method: as §1

[2] = test system: spontaneously hypertensive rats (SHR); test: in vivo blood pressure regulation by the repeated administration (systolic pressure); design: species or system rat; conditions: oral, daily for 4 weeks, hydrolysate 100 mg/kg, YA 50 μg/kg
Method: To investigate in vivo blood pressure regulation effect of the functional peptide separated from the oyster enzyme hydrolysate by the repeated administration, the peptide was administered to the hypertension animal model repeatedly, followed by the investigation of blood pressure.
as §1

[3] = test system: mild hypertension patients; conditions: Shimizu 1994; cited from earlier work

Molecule: C[C@H](NC(=O)[C@@H](N)Cc1ccc(O)cc1)C(=O)O [YA, tyrosine-alanine]
- level of blood ACE (in words) (blood ACE): significantly decreased
- blood pressure lowering effect after 6 hours from the administration ([1]; 50 μg/kg, 6 hours): 33.9%
- level of blood angiotensin-II (in words) (blood angiotensin-II): significantly decreased
- blood pressure on repeated administration (in words) [2]: blood pressure did not increase for 2 weeks

Molecule: C[C@H](CS)C(=O)N1CCC[C@H]1C(=O)O [Captopril, reference compound]
- blood pressure lowering effect ([1]; by the negative control, Captopril 8 mg/kg, hydrolysate 100 mg/kg): 18˜19%

Molecule: valine-tyrosine [Val-Tyr]
- activity of reducing blood pressure (in words) [3]: activity of reducing blood pressure

Reference: patent US10308681B2, “Pharmaceutical composition for the prevention and treatment of cardiovascular disease comprising the peptide having the ability to inhibit angiotensin-1 converting enzyme as an active ingredient” (University-Industry Cooperation Group of Kyung Hee …, priority 2012, dated 2019)
